Test results as given in patent US20180099931A1 (AbbVie S.à.r.l., priority 2016, published 2018).
pEC50: −log10 of the molar value. Like-named read-outs stand apart in the source and are kept apart here.

Biological target: T1, F508delCFTR (Homo sapiens, UniProt P13569, DEL508-508)
T1 construct: expressed in transfected cells; host or cells: CFBE41o- human lung-derived epithelial cells (CFBE4lo-F508delCFTR-HRP), doxycycline-inducible
Assay: Cell Surface Expression-Horse Radish Peroxidase (CSE-HRP) Assay;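 on Maximum % activity (with co-corrector): co-corrector and positive control are both the same reference corrector at 2 µM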;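 on Maximum % activity (without co-corrector): percent of the 2 µM on-plate positive control corrector response above DMSO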
Type: cell-based
Settings: for Maximum % activity (with co-corrector) / Emax: maximum at any tested concentration, normalized to on-plate positive control; for Emax: read-out: Maximum % activity (without co-corrector)

[1] = test compound without co-corrector, read-out: EC50 (without co-corrector)
[2] = with co-corrector (2 μM of 3-[(2R,4R)-4-({[1-(2,2-difluoro-1,3-benzodioxol-5-yl)cyclopropyl]carbonyl}amino)-7-methoxy-3,4-dihydro-2H-chromen-2-yl]benzoic acid), read-out: EC50 (with co-corrector)
[3] = test compound without co-corrector
[4] = with co-corrector (2 μM of 3-[(2R,4R)-4-({[1-(2,2-difluoro-1,3-benzodioxol-5-yl)cyclopropyl]carbonyl}amino)-7-methoxy-3,4-dihydro-2H-chromen-2-yl]benzoic acid)
[5] = CSE-HRP, test compound without co-corrector, read-out: EC50 (without co-corrector)
[6] = CSE-HRP, with co-corrector (2 μM of 3-[(2R,4R)-4-({[1-(2,2-difluoro-1,3-benzodioxol-5-yl)cyclopropyl]carbonyl}amino)-7-methoxy-3,4-dihydro-2H-chromen-2-yl]benzoic acid), read-out: EC50 (with co-corrector)
[7] = CSE-HRP, with co-corrector (2 μM)

T1 sequence (P13569 with tags, fused parts or gaps DEL508-508): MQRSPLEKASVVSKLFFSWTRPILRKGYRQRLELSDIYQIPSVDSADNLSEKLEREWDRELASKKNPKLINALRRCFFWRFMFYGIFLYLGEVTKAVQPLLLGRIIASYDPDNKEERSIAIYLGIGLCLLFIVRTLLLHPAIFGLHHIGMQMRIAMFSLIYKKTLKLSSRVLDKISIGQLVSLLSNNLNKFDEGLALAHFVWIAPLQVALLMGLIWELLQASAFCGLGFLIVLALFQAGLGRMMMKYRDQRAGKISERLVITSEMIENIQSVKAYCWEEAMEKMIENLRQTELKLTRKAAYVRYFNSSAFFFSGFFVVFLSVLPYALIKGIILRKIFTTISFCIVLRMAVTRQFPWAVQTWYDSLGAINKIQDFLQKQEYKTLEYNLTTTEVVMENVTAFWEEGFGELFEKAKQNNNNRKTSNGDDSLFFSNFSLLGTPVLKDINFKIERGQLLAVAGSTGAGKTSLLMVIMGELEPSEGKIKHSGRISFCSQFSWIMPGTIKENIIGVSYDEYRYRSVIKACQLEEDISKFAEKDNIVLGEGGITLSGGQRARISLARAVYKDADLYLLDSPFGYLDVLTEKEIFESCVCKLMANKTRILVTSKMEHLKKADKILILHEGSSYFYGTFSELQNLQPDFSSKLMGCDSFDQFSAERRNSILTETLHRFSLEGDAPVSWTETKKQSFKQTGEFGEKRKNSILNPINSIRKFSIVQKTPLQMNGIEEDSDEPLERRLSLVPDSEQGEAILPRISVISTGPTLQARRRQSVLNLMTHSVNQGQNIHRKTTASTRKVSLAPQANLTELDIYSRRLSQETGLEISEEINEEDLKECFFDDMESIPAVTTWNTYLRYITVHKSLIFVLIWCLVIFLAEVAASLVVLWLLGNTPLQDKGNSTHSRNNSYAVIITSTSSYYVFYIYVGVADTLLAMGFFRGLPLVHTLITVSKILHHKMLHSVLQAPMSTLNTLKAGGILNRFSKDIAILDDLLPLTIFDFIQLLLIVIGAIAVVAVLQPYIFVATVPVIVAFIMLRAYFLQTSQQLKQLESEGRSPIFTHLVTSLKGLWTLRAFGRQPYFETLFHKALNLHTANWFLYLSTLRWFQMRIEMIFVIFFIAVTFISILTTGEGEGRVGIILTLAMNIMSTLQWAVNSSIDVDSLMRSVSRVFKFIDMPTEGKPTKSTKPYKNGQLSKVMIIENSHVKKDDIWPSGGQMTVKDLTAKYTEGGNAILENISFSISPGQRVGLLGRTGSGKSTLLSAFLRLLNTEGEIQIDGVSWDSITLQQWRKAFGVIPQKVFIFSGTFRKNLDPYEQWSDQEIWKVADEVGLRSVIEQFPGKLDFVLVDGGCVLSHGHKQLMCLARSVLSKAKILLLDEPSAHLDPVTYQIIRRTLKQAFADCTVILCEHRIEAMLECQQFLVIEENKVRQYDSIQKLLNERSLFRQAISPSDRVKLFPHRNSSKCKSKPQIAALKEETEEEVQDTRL

pEC50 [1]	pEC50 [2]	Maximum % activity (with co-corrector) (with co-corrector (2 μM))	Emax (without co-corrector)	Emax [3]	Maximum % activity (with co-corrector) [4]	pEC50 [5]	pEC50 [6]	Maximum % activity (with co-corrector) [7]	Emax (CSE-HRP, without co-corrector)	SMILES
> 6.00	> 6.00	+++ (≥350)	> 200%							COc1ccc(-c2ccccc2)cc1CN[C@H]1[C@H](C(C)(C)OC)[C@@H](C(=O)O)N(C(=O)C2CCCCC2)[C@H]1c1ccccc1 [Example I-87]
< 5.00	5.00 to 6.00	++ (≥150 and <350)		< 100%						COc1cc(C(F)(F)F)ccc1CN[C@@H]1[C@@H](C(C)(C)C)[C@H](C(=O)O)N(C(=O)[C@H]2CCCCO2)[C@@H]1c1ccccc1 [III-117]
5.00 to 6.00	5.00 to 6.00			100 to 200%	+++ (≥350)					COc1cc(C(F)(F)F)ccc1CN[C@H]1[C@H](C(C)(C)C)[C@@H](C(=O)O)N(C(=O)CC(C)C)[C@H]1c1ccccc1 [II-558]
5.00 to 6.00	5.00 to 6.00	++ (≥150 and <350)		< 100%						COc1ccc(CN[C@H]2[C@H](C(C)(C)C)[C@@H](C(=O)O)N(C(=O)C3CCCCC3)[C@H]2c2ccccc2)cc1Cl [III-126]
5.00 to 6.00	5.00 to 6.00	++ (≥150 and <350)		< 100%						CC(C)(C)[C@H]1[C@H](Nc2ncccc2OCc2ccccc2)[C@H](c2ccccc2)N(C(=O)C2CCCCC2)[C@@H]1C(=O)O [III-160]
						5.00 to 6.00	5.00 to 6.00	+++ (≥350)	< 100%	COc1ccc(C(F)(F)F)cc1CN[C@@H]1[C@@H](C(C)(C)C)[C@H](C(=O)O)N(C(=O)Cc2ccccc2)[C@@H]1c1ccccc1 (racemic) [II-32]
< 5.00	5.00 to 6.00	++ (≥150 and <350)		< 100%						CC(C)(C)[C@H]1[C@H](NCc2ccc3c(c2)OC(F)(F)O3)[C@H](c2ccccc2)N(C(=O)C2CCCCC2)[C@@H]1C(=O)O [III-132]
5.00 to 6.00	5.00 to 6.00	+++ (≥350)	100 to 200%							COc1ccc(C(C)(C)C)cc1CN[C@H]1[C@H](C(C)(C)C)[C@@H](C(=O)O)N(C(=O)c2cnn(C(C)(C)C)c2C(C)C)[C@H]1c1ccccc1 [Example I-145]
						5.00 to 6.00	5.00 to 6.00	++ (≥150 and <350)	< 100%	CC(C)OC(=O)N1[C@H](C(=O)O)[C@@H](C(C)(C)C)[C@H](NCCc2ccccc2)[C@@H]1c1ccccc1 [Example I-263]
5.00 to 6.00	5.00 to 6.00			< 100%	++ (≥150 and <350)					COCCOc1ccc(C(F)(F)F)cc1CN[C@@H]1[C@@H](C(C)(C)C)[C@H](C(=O)O)N(C(=O)C2CCCCC2)[C@@H]1c1ccccc1 (racemic) [III-64]
						< 5.00	5.00 to 6.00	+ (<150)	< 100%	COc1ccccc1C1(CN[C@H]2[C@H](C(C)(C)C)[C@@H](C(=O)O)N(C(=O)OC(C)C)[C@H]2c2ccccc2)CCOCC1 [Example I-267]
						5.00 to 6.00	5.00 to 6.00	+++ (≥350)	< 100%	COc1ccc(-c2cccnc2C)cc1CN[C@H]1[C@H](C(C)(C)C)[C@@H](C(=O)O)N(C(=O)C2CCCCC2)[C@H]1c1ccccc1 [II-288]
< 5.00	< 5.00	+ (<150)		< 100%						CC(C)(C)NC(=O)c1cncc(N[C@H]2[C@H](C(C)(C)C)[C@@H](C(=O)O)N(C(=O)C3CCCCC3)[C@H]2c2ccccc2)c1 [III-161]
						5.00 to 6.00	5.00 to 6.00	+++ (≥350)	> 200%	COc1ccc(C(C)(C)C)cc1CN[C@H]1[C@H](C(C)(C)C)[C@@H](C(=O)O)N(C(=O)C2CCCCS2(=O)=O)[C@H]1c1ccccc1 (stereo partly drawn) [II-153]
5.00 to 6.00	> 6.00			> 200%	+++ (≥350)					COc1ccc(C23CC(C2)C3)cc1CN[C@H]1[C@H](C(C)(C)C)[C@@H](C(=O)O)N(C(=O)C2CCCCC2)[C@H]1c1cccnc1OC [II-486]
						5.00 to 6.00	5.00 to 6.00	+++ (≥350)	100 to 200%	COc1cc(Cl)ccc1CN[C@H]1[C@H](C(C)(C)C)[C@@H](C(=O)O)N(C(=O)C2CCCCC2)[C@H]1c1cccnc1OC [II-91]
						5.00 to 6.00	5.00 to 6.00	+++ (≥350)	> 200%	COc1ccc(C(F)(F)F)cc1CN[C@H]1[C@H](C(C)(C)C)[C@@H](C(=O)O)N(C(=O)[C@@H]2CCCCO2)[C@H]1c1ccccc1Br [Example I-290]
5.00 to 6.00	> 6.00			> 200%	+++ (≥350)					COc1ccc(OC(F)(F)F)cc1CN[C@H]1[C@H](C(C)(C)C)[C@@H](C(=O)O)N(C(=O)OC(C)C)[C@H]1c1ccccc1C(C)C [II-560]
5.00 to 6.00	5.00 to 6.00			> 200%	+++ (≥350)					C=CCOC(=O)N1[C@H](C(=O)O)[C@@H](C(C)(C)C)[C@H](NCc2cc(C(C)(C)C)ccc2OC)[C@@H]1c1ccccc1 [II-391]
5.00 to 6.00	5.00 to 6.00	+++ (≥350)	> 200%							COc1ncc(C2CCC2)cc1CN[C@H]1[C@H](C(C)(C)C)[C@@H](C(=O)O)N(C(=O)C2CCCCC2)[C@H]1c1cccnc1N(C)C [Example I-131]
5.00 to 6.00	5.00 to 6.00			< 100%	++ (≥150 and <350)					COc1ncc(C(F)(F)F)cc1N[C@H]1[C@H](C(C)(C)C)[C@@H](C(=O)O)N(C(=O)C2CCCC(F)(F)C2)[C@H]1c1cccnc1N(C)C (stereo partly drawn) [II-488]
5.00 to 6.00	5.00 to 6.00			100 to 200%	+++ (≥350)					COc1ccc(-c2ccccc2)cc1CN[C@H]1[C@H](C(C)(C)C)[C@@H](C(=O)O)N(C(=O)[C@H]2CCCCO2)[C@H]1c1cccnc1N(C)C [II-447]
5.00 to 6.00	5.00 to 6.00	+++ (≥350)	< 100%							COc1cnc(C2CCC2)cc1CN[C@H]1[C@H](C(C)(C)C)[C@@H](C(=O)O)N(C(=O)C2CCCCC2)[C@H]1c1ccccc1 [Example I-168]
5.00 to 6.00	5.00 to 6.00			> 200%	+++ (≥350)					COc1ccc(S(F)(F)(F)(F)F)cc1CN[C@H]1[C@H](C(C)(C)C)[C@@H](C(=O)O)N(C(=O)OC(C)C)[C@H]1c1ccccc1 [II-535]
						5.00 to 6.00	5.00 to 6.00	+++ (≥350)	> 200%	COc1ncc(C2CC2)cc1CN[C@H]1[C@H](C(C)(C)C)[C@@H](C(=O)O)N(C(=O)[C@@H]2CCCO2)[C@H]1c1ccccc1Br [Example I-293]
5.00 to 6.00	5.00 to 6.00	++ (≥150 and <350)		< 100%						COc1ncc(C(F)(F)F)cc1CN[C@H]1[C@H](C2(C)CC2)[C@@H](C(=O)O)N(C(=O)C2CCCCC2)[C@H]1c1ccccc1 [III-189]
						5.00 to 6.00	5.00 to 6.00	++ (≥150 and <350)	< 100%	CC(C)(C)[C@H]1[C@H](NCc2ccc(F)c(Oc3ccccc3)c2)[C@H](c2ccccc2)N(C(=O)C2CCCCC2)[C@@H]1C(=O)O [II-130]
